Experimental data published in ChEMBL document CHEMBL3352227, “Synthesis, antimycobacterial and antibacterial evaluation of l-[(1R, 2S)-2-fluorocyclopropyl]fluoroquinolone derivatives containing an oxime functional moiety” (Eur J Med Chem, 2014).
Converted amounts (≈) assume the structure as drawn.

Columns and labels:
Type in all cases: functional
[1] = test system: Mycobacterium tuberculosis; assay: Antimycobacterial activity against Mycobacterium tuberculosis H37Rv ATCC 27294 by MABA method
[2] = test system: Escherichia coli; assay: Antibacterial activity against Escherichia coli ATCC 25922 after 18 to 24 hrs by standard twofold serial dilution method
[3] = test system: Escherichia coli; assay: Antibacterial activity against extended-spectrum beta-lactamase producing Escherichia coli 12-15 after 18 to 24 hrs by standard twofold serial dilution method
[4] = test system: Klebsiella pneumoniae; assay: Antibacterial activity against Klebsiella pneumoniae 12-1 after 18 to 24 hrs by standard twofold serial dilution method
[5] = test system: Klebsiella pneumoniae; assay: Antibacterial activity against Klebsiella pneumoniae 12-2 after 18 to 24 hrs by standard twofold serial dilution method
[6] = test system: Klebsiella pneumoniae; assay: Antibacterial activity against Klebsiella pneumoniae 12-4 after 18 to 24 hrs by standard twofold serial dilution method
[7] = test system: Klebsiella pneumoniae; assay: Antibacterial activity against extended-spectrum beta-lactamase producin Klebsiella pneumoniae 12-3 after 18 to 24 hrs by standard twofold serial dilution method
[8] = test system: Klebsiella pneumoniae; assay: Antibacterial activity against extended-spectrum beta-lactamase producin Klebsiella pneumoniae 12-4 after 18 to 24 hrs by standard twofold serial dilution method
[9] = test system: Klebsiella pneumoniae; assay: Antibacterial activity against extended-spectrum beta-lactamase producin Klebsiella pneumoniae 12-7 after 18 to 24 hrs by standard twofold serial dilution method
[10] = test system: Klebsiella pneumoniae; assay: Antibacterial activity against extended-spectrum beta-lactamase producin Klebsiella pneumoniae 12-14 after 18 to 24 hrs by standard twofold serial dilution method
[11] = test system: Pseudomonas aeruginosa; assay: Antibacterial activity against Pseudomonas aeruginosa 12-14 after 18 to 24 hrs by standard twofold serial dilution method
[12] = test system: Staphylococcus aureus; assay: Antibacterial activity against Staphylococcus aureus ATCC 25923 after 18 to 24 hrs by standard twofold serial dilution method
[13] = test system: Staphylococcus aureus; assay: Antibacterial activity against methicillin-sensitive Staphylococcus aureus 12-1 after 18 to 24 hrs by standard twofold serial dilution method
[14] = test system: Staphylococcus aureus; assay: Antibacterial activity against methicillin-sensitive Staphylococcus aureus 12-2 after 18 to 24 hrs by standard twofold serial dilution method
[15] = test system: Staphylococcus aureus; assay: Antibacterial activity against methicillin-sensitive Staphylococcus aureus 12-4 after 18 to 24 hrs by standard twofold serial dilution method
[16] = test system: Staphylococcus aureus; assay: Antibacterial activity against methicillin-sensitive Staphylococcus aureus 12-5 after 18 to 24 hrs by standard twofold serial dilution method
[17] = test system: Staphylococcus aureus; assay: Antibacterial activity against methicillin-resistant Staphylococcus aureus 12-2 after 18 to 24 hrs by standard twofold serial dilution method
[18] = test system: Staphylococcus aureus; assay: Antibacterial activity against methicillin-resistant Staphylococcus aureus 12-4 after 18 to 24 hrs by standard twofold serial dilution method
[19] = test system: Staphylococcus aureus; assay: Antibacterial activity against methicillin-resistant Staphylococcus aureus 12-5 after 18 to 24 hrs by standard twofold serial dilution method
[20] = test system: Staphylococcus epidermidis; assay: Antibacterial activity against methicillin-sensitive Staphylococcus epidermidis 12-1 after 18 to 24 hrs by standard twofold serial dilution method
[21] = test system: Staphylococcus epidermidis; assay: Antibacterial activity against methicillin-sensitive Staphylococcus epidermidis 12-3 after 18 to 24 hrs by standard twofold serial dilution method
[22] = test system: Staphylococcus epidermidis; assay: Antibacterial activity against methicillin-sensitive Staphylococcus epidermidis 12-6 after 18 to 24 hrs by standard twofold serial dilution method
[23] = test system: Staphylococcus epidermidis; assay: Antibacterial activity against methicillin-sensitive Staphylococcus epidermidis 12-8 after 18 to 24 hrs by standard twofold serial dilution method
[24] = test system: Staphylococcus epidermidis; assay: Antibacterial activity against methicillin-resistant Staphylococcus epidermidis 12-1 after 18 to 24 hrs by standard twofold serial dilution method
[25] = test system: Staphylococcus epidermidis; assay: Antibacterial activity against methicillin-resistant Staphylococcus epidermidis 12-6 after 18 to 24 hrs by standard twofold serial dilution method
[26] = test system: Streptococcus pneumoniae; assay: Antibacterial activity against Streptococcus pneumoniae ATCC 49619 after 18 to 24 hrs by standard twofold serial dilution method
[27] = test system: Streptococcus pneumoniae; assay: Antibacterial activity against Streptococcus pneumoniae 12-18 after 18 to 24 hrs by standard twofold serial dilution method
[28] = test system: Escherichia coli; assay: Antibacterial activity against Escherichia coli 12-1 after 18 to 24 hrs by standard twofold serial dilution method
[29] = test system: Escherichia coli; assay: Antibacterial activity against extended-spectrum beta-lactamase producing Escherichia coli 12-2 after 18 to 24 hrs by standard twofold serial dilution method
[30] = test system: Escherichia coli; assay: Antibacterial activity against extended-spectrum beta-lactamase producing Escherichia coli 12-3 after 18 to 24 hrs by standard twofold serial dilution method
[31] = test system: Escherichia coli; assay: Antibacterial activity against extended-spectrum beta-lactamase producing Escherichia coli 12-14 after 18 to 24 hrs by standard twofold serial dilution method
[32] = test system: Pseudomonas aeruginosa; assay: Antibacterial activity against Pseudomonas aeruginosa 12-12 after 18 to 24 hrs by standard twofold serial dilution method

SMILES | MIC [1] [µg/mL] | MIC [2] [µg/mL] | MIC [3] [µg/mL] | MIC [4] [µg/mL] | MIC [5] [µg/mL] | MIC [6] [µg/mL] | MIC [7] [µg/mL] | MIC [8] [µg/mL] | MIC [10] [µg/mL] | MIC [11] [µg/mL] | MIC [12] [µg/mL] | MIC [13] [µg/mL] | MIC [14] [µg/mL] | MIC [15] [µg/mL] | MIC [16] [µg/mL] | MIC [17] [µg/mL] | MIC [18] [µg/mL] | MIC [19] [µg/mL] | MIC [20] [µg/mL] | MIC [21] [µg/mL] | other results
O=C(O)c1cn(C2CC2)c2cc(N3CCNCC3)c(F)cc2c1=O [CIPROFLOXACIN] | 0.25 (≈ 0.754 µM) | < 0.008 | 64 (≈ 193 µM) | 0.125 (≈ 0.377 µM) | 0.03 (≈ 0.0905 µM) | < 0.008 | 32 (≈ 96.6 µM) | 4 (≈ 12.1 µM) | 64 (≈ 193 µM) | 32 (≈ 96.6 µM) | 0.25 (≈ 0.754 µM) | 0.25 (≈ 0.754 µM) | 0.25 (≈ 0.754 µM) | 0.25 (≈ 0.754 µM) | 0.25 (≈ 0.754 µM) | 64 (≈ 193 µM) | 64 (≈ 193 µM) | 32 (≈ 96.6 µM) | 0.25 (≈ 0.754 µM) | 2 (≈ 6.04 µM) | MIC [9]: 0.5 µg/mL (≈ 1.51 µM); MIC [22]: 0.25 µg/mL (≈ 0.754 µM); MIC [23]: 4 µg/mL (≈ 12.1 µM); MIC [24]: 8 µg/mL (≈ 24.1 µM); MIC [25]: 16 µg/mL (≈ 48.3 µM); MIC [26]: 0.25 µg/mL (≈ 0.754 µM); MIC [27]: 1 µg/mL (≈ 3.02 µM)
NNC(=O)c1ccncc1 [ISONIAZID] | 0.05 (≈ 0.365 µM) | – | – | – | – | – | – | – | – | – | – | – | – | – | – | – | – | – | – | – | –
C[C@H]1COc2c(N3CCN(C)CC3)c(F)cc3c(=O)c(C(=O)O)cn1c23.C[C@H]1COc2c(N3CCN(C)CC3)c(F)cc3c(=O)c(C(=O)O)cn1c23.O [LEVOFLOXACIN] | 0.25 | < 0.008 | 32 | 0.06 | < 0.008 | < 0.008 | 16 | 8 | 16 | 16 | < 0.008 | 0.125 | 0.125 | 0.125 | 0.125 | 32 | 32 | 32 | 0.125 | 0.5 | MIC [28]: 0.25 µg/mL; MIC [29]: 16 µg/mL; MIC [30]: 32 µg/mL; MIC [31]: 16 µg/mL; MIC [32]: 0.5 µg/mL; MIC [22]: 0.125 µg/mL; MIC [23]: 4 µg/mL; MIC [24]: 4 µg/mL; MIC [25]: 32 µg/mL; MIC [26]: 0.125 µg/mL
COc1c(N2C[C@@H]3CCCN[C@@H]3C2)c(F)cc2c(=O)c(C(=O)O)cn(C3CC3)c12 [MOXIFLOXACIN] | – | < 0.008 | 32 (≈ 79.7 µM) | 0.015 (≈ 0.0374 µM) | 0.06 (≈ 0.149 µM) | 0.03 (≈ 0.0747 µM) | 32 (≈ 79.7 µM) | 0.5 (≈ 1.25 µM) | 64 (≈ 159 µM) | 16 (≈ 39.9 µM) | < 0.008 | 0.015 (≈ 0.0374 µM) | < 0.008 | < 0.008 | 0.015 (≈ 0.0374 µM) | 8 (≈ 19.9 µM) | 8 (≈ 19.9 µM) | 8 (≈ 19.9 µM) | 0.03 (≈ 0.0747 µM) | 0.125 (≈ 0.311 µM) | MIC [28]: 0.5 µg/mL (≈ 1.25 µM); MIC [29]: 32 µg/mL (≈ 79.7 µM); MIC [30]: 64 µg/mL (≈ 159 µM); MIC [9]: 0.5 µg/mL (≈ 1.25 µM); MIC [32]: 2 µg/mL (≈ 4.98 µM); MIC [22]: 0.03 µg/mL (≈ 0.0747 µM); MIC [23]: 1 µg/mL (≈ 2.49 µM); MIC [24]: 0.25 µg/mL (≈ 0.623 µM); MIC [25]: 16 µg/mL (≈ 39.9 µM); MIC [26]: 0.06 µg/mL (≈ 0.149 µM); MIC [27]: 0.5 µg/mL (≈ 1.25 µM)
CO[C@H]1/C=C/O[C@@]2(C)Oc3c(C)c(O)c4c(O)c(c(/C=N/N5CCN(C)CC5)c(O)c4c3C2=O)NC(=O)/C(C)=C\C=C\[C@H](C)[C@H](O)[C@@H](C)[C@@H](O)[C@@H](C)[C@H](OC(C)=O)[C@@H]1C [RIFAMPIN] | 0.05 (≈ 0.0608 µM) | – | – | – | – | – | – | – | – | – | – | – | – | – | – | – | – | – | – | – | –
